Experimental data as given in patent US20130059859A1, “PREDICTIVE BIOMARKERS FOR PI3K/AKT KINASE PATHWAY INHIBITOR EFFICACY” (GENENTECH, INC., priority 2010, published 2013).
Values belong to the compound of their own block, whether it stands above or below them.

Assays:
[1] = system: FOXO3a; test: FOXO3a immunofluorescence localization (cytoplasm-to-nucleus translocation) assay; format: cell-based
Description: Tissue culture cells are plated in 96 well culture plates in culture medium with 10% (full) serum. 24 hours later, cells are dosed with 1 uM of indicated drug for 6 hours at which point cells are directly fixed in 4% formaldehyde in protein-free phosphate-buffered saline (PBS) for 20 min at 37° C. Plates are washed and then cells permeabilized by a 10 min incubation in ice cold methanol. Plates are washed to remove methanol and incubated with anti-FOXO3a antibody (Cell Signaling Technology, catalog #2497, clone 75D8) in antibody dilution buffer (1% BSA, 0.3% Triton X-100 in PBS) at a 1:20 dilution of primary antibody, along with Hoechst nuclear stain (1:10,000 dilution). Cells are incubated overnight at 4° C. Plates are washed to remove primary antibody and then incubated with secondary antibody, goat anti-rabbit conjugated to Alexa-flour 488 dye (Invitrogen) for 1 hr at ambient temperature in the dark. Plates are washed with PBS, sealed with black plate sealer and analyzed on the Cellomics HCS ArrayScan Imager using the Cytoplasm-to-Nucleus translocation bioapplication (Thermo Scientific).

[2] = system: breast cancer cell lines; conditions: panel of breast cancer cell lines; Hoeflich et al 2009; cited from earlier work
[3] = system: PTEN null breast cancer cell lines; test: Cell line sensitivity to AKT inhibitor (IC50); format: cell-based
[4] = PI3K/AKT inhibitor resistant cell lines, FIG. 8
[5] = cell lines sensitive to PI3K/AKT inhibitors, FIG. 7
[6] = resistant lines with PI3K/AKT activation (MB-468 with PTEN loss), FIG. 8

SMILES: O=C(NOC[C@H](O)CO)c1ccc(F)c(F)c1Nc1ccc(I)cc1F [PD901, reference compound]
FOXO3a localization upon treatment ([1]; breast cancer cell lines, FIGS. 11A-C): unchanged
activity at the concentration used [2]: active

IC50 ([3]; resistant cell lines with PTEN null status, FIG. 5): > 20 µM
SMILES: CC(C)NC[C@@H](C(=O)N1CCN(c2ncnc3c2[C@H](C)C[C@H]3O)CC1)c1ccc(Cl)cc1 [GDC-0068, (S)-2-(4-chlorophenyl)-1-(4-((5R,7R)-7-hydroxy-5-methyl-6,7-dihydro-5H-cyclopenta[d]pyrimidin-4-yl)piperazin-1-yl)-3-(isopropylamino)propan-1-one]
sensitivity of cell line to AKT inhibitor ([3]; MDA-MB-468, cell line with PTEN loss): resistant
FOXO3a localization post-treatment ([1]; BT474 cells, FIG. 2B): translocated to the nucleus
FOXO3a localization upon treatment [1, 4]: remains nuclear
FOXO3a localization upon treatment [1, 5]: translocated from cytoplasm to nucleus
FOXO3a localization upon treatment [1, 6]: more complete relocalization to nucleus

SMILES: CS(=O)(=O)N1CCN(Cc2cc3nc(-c4cccc5[nH]ncc45)nc(N4CCOCC4)c3s2)CC1 [GDC-0941, 2-(1H-Indazol-4-yl)-6-(4-methanesulfonyl-piperazin-1-ylmethyl)-4-morpholin-4-yl-thieno[3,2-d]pyrimidine]
FOXO3a localization upon treatment [1, 4]: remains nuclear
FOXO3a localization upon treatment ([1]; cell lines resistant to GDC-0941, FIG. 10B): remains nuclear
FOXO3a localization upon treatment ([1]; cell lines sensitive to GDC-0941, FIG. 10A): relocalizes from cytoplasm to nucleus
FOXO3a localization upon treatment [1, 5]: translocated from cytoplasm to nucleus
FOXO3a localization upon treatment [1, 6]: more complete relocalization to nucleus
